Measured values from PMC6668146, “Molecular characterization and functional analysis of the Schistosoma mekongi Ca^2+-dependent cysteine protease (calpain)” (Parasites & Vectors, 2019).
Peptide text beside a SMILES is read from it. * marks the point of attachment. Cbz = O=C(OCc1ccccc1)*

Target: rSmeCalp1 (recombinant Schistosoma mekongi calpain 1) (Schistosoma mekongi, UniProt A0A5B8WCQ5)
Test: fluorogenic protease assay (AMC release)
Type: biochemical

rSmeCalp1 (recombinant Schistosoma mekongi calpain 1), sequence (A0A5B8WCQ5 entry or part of it): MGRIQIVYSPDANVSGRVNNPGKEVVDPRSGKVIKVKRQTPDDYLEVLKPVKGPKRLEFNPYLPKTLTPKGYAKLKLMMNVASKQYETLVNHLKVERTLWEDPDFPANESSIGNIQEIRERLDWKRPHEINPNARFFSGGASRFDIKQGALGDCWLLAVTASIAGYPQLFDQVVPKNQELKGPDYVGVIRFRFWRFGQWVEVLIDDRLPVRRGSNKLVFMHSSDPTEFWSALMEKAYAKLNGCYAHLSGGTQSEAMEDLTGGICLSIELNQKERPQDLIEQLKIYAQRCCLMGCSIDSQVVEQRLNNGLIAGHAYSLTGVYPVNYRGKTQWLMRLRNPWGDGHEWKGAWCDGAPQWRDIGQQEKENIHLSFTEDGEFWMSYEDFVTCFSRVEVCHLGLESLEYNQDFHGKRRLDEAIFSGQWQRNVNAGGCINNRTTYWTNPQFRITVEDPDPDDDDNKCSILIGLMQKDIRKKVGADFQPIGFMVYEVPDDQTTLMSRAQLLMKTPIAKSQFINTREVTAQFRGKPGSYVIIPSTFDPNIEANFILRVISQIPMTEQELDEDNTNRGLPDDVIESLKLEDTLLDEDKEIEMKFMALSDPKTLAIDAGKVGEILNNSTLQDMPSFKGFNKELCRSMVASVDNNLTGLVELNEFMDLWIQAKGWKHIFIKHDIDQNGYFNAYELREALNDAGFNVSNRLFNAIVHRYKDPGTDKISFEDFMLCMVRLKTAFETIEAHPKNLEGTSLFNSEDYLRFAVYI

| inhibition at 100 µM | SMILES |
| --- | --- |
| 94% | CC(C)[C@H](NC(=O)OCc1ccccc1)C(=O)N[C@H](C=O)Cc1ccccc1 [MDL28170] (Cbz-Val-Phe-aldehyde) |
| 87% | CC(C)CCNC(=O)[C@H](CC(C)C)NC(=O)[C@H]1O[C@@H]1C(=O)O [E64c] |

| SMILES | inhibition at 100 µM |
| --- | --- |
| CC(C)C[C@H](NC(=O)[C@@H]1O[C@H]1C(=O)O)C(=O)NCCCCN=C(N)N [E64] | 98% |
